Where a name gives a salt, the structure may show the parent alone. Read-outs that look alike come from different tables or passages of the source.
What was measured:
[1] = test system: pancreatic cancer; details: in vivo; cited from earlier work
[2] = in vivo; cited from earlier work
[3] = test system: metastatic triple negative breast cancer; details: cited from earlier work
[4] = test system: Breast carcinoma (human MX-1); details: agent combined with veliparib; cited from earlier work
[5] = test system: B Cell lymphoma (human DOHH2); details: agent combined with veliparib; cited from earlier work
[6] = test system: Melanoma (murine B16F10); details: agent combined with veliparib; cited from earlier work
[7] = human, in vivo; cited from earlier work
[8] = test system: locally advanced and metastatic pancreatic carcinomas; details: cited from earlier work
[9] = test system: locally advanced and metastatic pancreatic adenocarcinoma; details: cited from earlier work
[10] = test system: pancreatic cancer; details: full-dose gemcitabine with 36 Gy; cited from earlier work
[11] = test system: unresectable pancreatic cancer; details: cited from earlier work
[12] = test system: pancreatic cancer; details: cited from earlier work
[13] = repeated dose toxicity in conjunction with cisplatin; assay type: in vivo, rats
[14] = cited from earlier work
[15] = repeated dose toxicity, sole agent; assay type: in vivo, rats; details: no adverse effects, highest dose tested
[16] = in vitro; cited from earlier work
[17] = cited from earlier work; remark: listed apart in the source
[18] = highest dose tested; cited from earlier work
[19] = repeated dose (2-week) toxicology study; details: 30 mg base/kg/day
[20] = test system: PAR in PBMCs and tumor; details: cited from earlier work; for treatment related adverse events: single dose 10 or 25 mg
[21] = test system: C-41 cells; details: cited from earlier work
[22] = test system: locally advanced or borderline resectable pancreatic cancer; assay: Phase I VelGemRad trial, PFS and OS, overall and by DDR biomarker
Procedure: RNA-seq libraries were prepared from pre-treatment tumor biopsies. The database for annotation, visualization, and integrated discovery (DAVID) v6.7 was used to interpret the differential expression genes data. Cox regression model was used to identify DNA damage related pathways associated with patient survivals.
The secondary objective was to measure the clinical activity of the treatment (progression free survival—PFS, overall survival—OS) and evaluate patient tumor or blood pre-, during and post treatment for DNA damage repair alterations, PAR levels and immune mediators. Between 2013 and 2016, 34 patients enrolled at a single institution. Four were removed due to non-compliance. The median age was 67 and 24 were LAPC and 6 were borderline resectable prostate cancer (BR).
Treatment naïve patients with LA or borderline resectable pancreatic cancer (BR) were treated with weekly G (1000 mg/m^2), daily RT (36 Gy/15 fractions) and V 20 mg BID daily for 3 weeks escalated per Bayesian method followed by standard chemotherapy. DAVID v6.7 was used to interpret transcriptomic differential expression of genes. Cox regression model was used to identify DDR pathways associated with survival. […] The log-rank test was used to evaluate differences in PFS and OS.

[23] = biological target: human 5-HT7 (Homo sapiens, UniProt P34969); details: 10 μM (2.4 μg/mL); cited from earlier work
[24] = anesthetized dog cardiovascular model
[25] = dog, 5 μM; cited from earlier work
[26] = test system: PARP; details: cited from earlier work
[27] = 8-hour incubation; cited from earlier work
[28] = monkey; cited from earlier work
[29] = mice, cited from earlier work
[30] = cited from earlier work; remark: listed apart in the source
[31] = cited from earlier work; remark: listed apart in the source
[32] = all patients, with gemcitabine and IMRT
[33] = biomarker positive (+), DNA repair defects by gene expression

human 5-HT7, sequence (P34969 whole entry): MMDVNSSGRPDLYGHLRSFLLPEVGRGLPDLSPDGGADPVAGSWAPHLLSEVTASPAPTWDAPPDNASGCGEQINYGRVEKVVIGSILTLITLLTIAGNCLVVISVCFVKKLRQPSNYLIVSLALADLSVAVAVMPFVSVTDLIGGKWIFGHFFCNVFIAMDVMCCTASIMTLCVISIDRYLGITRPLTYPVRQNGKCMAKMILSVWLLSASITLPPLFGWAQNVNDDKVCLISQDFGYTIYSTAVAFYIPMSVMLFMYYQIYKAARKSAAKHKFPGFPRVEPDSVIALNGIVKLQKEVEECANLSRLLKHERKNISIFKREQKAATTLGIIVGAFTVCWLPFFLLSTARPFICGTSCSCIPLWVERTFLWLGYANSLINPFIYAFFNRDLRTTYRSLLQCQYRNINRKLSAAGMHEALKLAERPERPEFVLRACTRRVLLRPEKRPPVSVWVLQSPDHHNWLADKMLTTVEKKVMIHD

## O=c1[nH]cc(F)c(=O)[nH]1 [5 FU]
[1]
  median survival: 4.41 months
  patients with clinical benefit: 5%

## CC1(c2nc3c(C(N)=O)cccc3[nH]2)CCC(=O)N1 (stereo not shown) [A-925088]
[2]
  route of clearance: cleared primarily in the urine

## NC(=O)c1ccc(I)c([N+](=O)[O-])c1 [BSI-201]
[3]; in vivo
  frequency and nature of adverse events: did not differ between arms
[3]; with gemcitabine 1000 mg/m^2 and carboplatin AUC=2
  clinical outcome versus chemotherapy alone: improved CBR, median PFS, and median OS

## N.N.O=C([O-])C1(C(=O)[O-])CCC1.[Pt+2] [Carboplatin]
[4]
  veliparib mediated potentiation of cytotoxic agent: Yes

## N.N.[Cl][Pt][Cl] [Cisplatin]
[4]
  veliparib mediated potentiation of cytotoxic agent: Yes
[5]
  veliparib mediated potentiation of cytotoxic agent: No

## O=P1(N(CCCl)CCCl)NCCCO1 (stereo not shown) [Cyclophosphamide]
[4]
  veliparib mediated potentiation of cytotoxic agent: Yes

## CCc1c2c(nc3ccc(OC(=O)N4CCC(N5CCCCC5)CC4)cc13)-c1cc3c(c(=O)n1C2)COC(=O)[C@]3(O)CC [Irinotecan]
[6]
  veliparib mediated potentiation of cytotoxic agent: Yes

## Nc1ccn([C@@H]2O[C@H](CO)[C@@H](O)C2(F)F)c(=O)n1 [gemcitabine, 2′,2′-Difluoro-2′-deoxycytidine]
[1]
  median survival: 5.56 months
  patients with clinical benefit: ~25%
[7]
  time to steady-state plasma levels after starting infusion: ≤ 15 min
[8]; chemo naïve patients
  response rates: up to 42%
[8]; heavily pretreated patients
  response rates: 11-22%
[9]; FDR arm versus standard
  intracellular gemcitabine triphosphate concentration: two-fold increase
[9]; FDR arm, 1,500 mg/m^2 over 150 minutes
  median survival: 8.0 months
[9]; FDR infusion arm
  hematologic toxicity: increased but acceptable hematologic toxicity
[9]; standard arm, 2,200 mg/m^2 over 30 minutes
  median survival: 5.0 months
[10]
  disease control rates: 84.6%
  response rates: 5.1%
  tolerability: well-tolerated
[11]; FDR-G with IMRT 50-60 Gy
  patients with DLT: 6 patients
[11]; in vivo
  median overall survival: 23.1 months
  median progression-free survival: 7.2 months
  response rate: 52.4%
[12]; combined arm, gemcitabine 600 mg/m^2 with 50.4 Gy
  objective responses: 8.8%
[12]; combined group
  Grade IV toxicity: 41.2%
[12]; gemcitabine alone arm (1000 mg/m^2)
  objective responses: 2.7%
[12]; gemcitabine alone
  Grade IV toxicity: 5.7%

## C[C@]1(c2nc3c(C(N)=O)cccc3[nH]2)CCCN1 [veliparib dihydrochloride]
[13]; highest dose with cisplatin
  Cmax as multiple of estimated therapeutic peak plasma concentration: 22 fold
[13]; no clinically meaningful exacerbation
  Cmax as multiple of estimated therapeutic value: up to 8 fold
[14]; highest dose with cisplatin
  exacerbation of cisplatin-associated toxicity: Exacerbation of cisplatin-associated toxicity
[14]; lower doses with cisplatin
  exacerbation of cisplatin-associated toxicity: no clinically meaningful exacerbations
[15]
  Cmax as multiple of estimated therapeutic peak plasma concentration: greater than 19 fold
[16]
  clastogenicity: negative
  mutagenicity: negative
[17]; 30 mg base/kg/day
  toxic findings: emesis, body weight losses related to anorexia, and convulsions
[18]
  adverse effects, sole agent: did not result in adverse effects
[19]
  Cmax as multiple of estimated therapeutic peak plasma concentration: 26 fold

## C[C@]1(c2nc3c(C(N)=O)cccc3[nH]2)CCCN1 [veliparib]
[20]; 10 mg dose level
  patients exceeding target plasma Cmax of 210 nM: 2 of 3 patients
[20]; 25 mg dose level
  patients exceeding target plasma Cmax of 210 nM for at least 4 hours: all three patients
[20]; single 25 mg dose, PBMCs and tumor samples
  reduction of PAR levels from baseline: 80-99%
[20]
  treatment related adverse events: No treatment related adverse events
[20]; listed as ABT-888
  treatment related adverse events: no treatment related adverse events
[21]; added to 1 mM temozolomide
  γ-H2AX foci (DNA damage): further potentiated
[21]; with irinotecan
  DNA damage caused by irinotecan: potentiates
[22]; FA biomarker (+)
  median OS: 18 months
[22]; FA biomarker (−)
  median OS: 12 months
[22]; MMR biomarker (+)
  median OS: 18 months
[22]; MMR biomarker (−)
  median OS: 12 months
[22]; NER biomarker (+)
  median OS: 22 months
[22]; NER biomarker (−)
  median OS: 12 months
[22]; [32]
  median overall survival (OS): 14.6 months
  median progression free survival (PFS): 9.8 months
[22]; biomarker negative (−)
  median OS: 12 mos
  median PFS: 8 mos
[22]; [33]
  median OS: 22 mos
  median PFS: 17 mos
[23]
  displacement of control-specific binding: 84%
[24]; at 4.45 μg/mL
  multiple of predicted clinical Cmax: 21 fold
[24]; at 12.96 μg/mL
  multiple of predicted clinical Cmax: 62 fold
[24]; dog, in vivo
  multiple of predicted clinical Cmax at which QT prolongation was seen: 21 fold
[25]
  protein binding in plasma, % bound: 42%
[26]; 12.5, 5 and 1 mg/kg/day, vehicle and temozolomide treated groups
  inhibition of PARP activity in tumors: significant
[26]; veliparib alone, two hours after administration
  PAR formation in tumors: inhibited PAR formation in B16F10 tumors in a dose-dependent manner
[27]
  stability in plasma: very stable
[28]
  oral bioavailability: 56.1%
[29]; 100 mg/kg PO
  outcome after electrically-induced tonic convulsions: increased incidence of death
[29]
  outcome in audiogenic seizure model: Death was also noted
[17]; 60 mg/kg/day, 30 mg/kg twice daily or 30 mg/kg every day
  seizures: seizures were also noted
[17]; beagle dogs
  non-toxic dose in the most sensitive mammalian species: 300 mg/m^2
[17]; dog, in vivo
  plasma concentrations in dogs with seizures: > 5400 ng/mL
[30]; 12.96 μg/mL
  change in mean arterial pressure versus baseline: −16±5%
  change in systemic vascular resistance versus baseline: −10±7%
[30]; 12.96±0.92 μg/mL
  QTcV prolongation above baseline: 15±3%
[30]; dog, in vivo
  mean plasma concentration with modest haemodynamic effects: 12960 ± 920 ng/mL
  mean plasma concentration without haemodynamic change: 4450 ± 130 ng/mL
[30]; mean plasma concentrations up to 4.45 μg/mL
  mean arterial pressure, heart rate, dP/dtmax, pulmonary arterial pressure, vascular resistance: no physiologically relevant changes
[30]; plasma concentrations 21-fold predicted Cmax
  delayed repolarization (QTc intervals), trend: 7%
[31]; long-term clonogenic assay
  potentiation of cisplatin: potentiation was observed
[31]; short-term cytotoxicity assay
  potentiation of cisplatin: not in the short-term cytotoxicity assay

Source: patent US11149300B1, “Methods of treating gastrointestinal malignancies” (Cedars-Sinai Medical Center, priority 2018, dated 2021)
